We go through 19 compounds from patent US20090081704A1, “COMPOSITIONS, METHODS AND KITS FOR REAL-TIME ENZYME ASSAYS USING CHARGED MOLECULES” (priority 2004, published 2009).

The conditions of data set [1]: cited from earlier work; for Monera et al. Hydrophobicity at pH 7: normalized, phenylalanine 100, glycine 0.
The conditions of data set [2]: cited from earlier work.
The target in data set [3] is T1, PKCβII (Homo sapiens, UniProt P05771).
T1 construct: purchased Upstate USA, Inc
The data set can be described thus: Inhibition of PKCβII in real-time micelle kinase assay. It counts as biochemical. As to conditions: FIGS. 5A-B, IC50 only in figures.
Experimental: A reaction solution (10 μl) was prepared containing the hydrophobic molecule C16OOOK(Dye2)EEIYGEF-amide (10 μM), and 10 μM charge-balance molecule Myelin Basic Protein (Upstate USA, Inc. cat. no: 13-104), in 20 mM Tris buffer, pH 7.6, MgCl2 (5 mM), DTT (5 mM), 10% Lipid Activator (Upstate USA, Inc), and PKCβII (0.15 ng/μl, Upstate USA, Inc.). The solution was pipetted into wells of a 384-well plate (10 μL per well), Corning 384-well, black, non-binding surface (NBS), microwell plates. […] ATP (10 μM) was added to initiate the kinase reaction. Fluorescence was read in real-time every 2 minutes for 2 hours, at ambient temperature, using, Molecular Devices (Sunnyvale, Calif.) Analyst GT, with excitation and emission set at 485 and 535 nm respectively.

Data set [4] concerns the target T2, MAP kinase2/Erk2 (Homo sapiens, UniProt P28482).
T2 construct: purchased Upstate USA, Inc
As to the kind of experiment: Real-time kinase assay with hydrophobic molecule and myelin basic protein micelle. As to conditions: FIG. 3C. It counts as biochemical. The protocol:
(§1) The compositions described herein are useful in the detection of enzymes. Real-time kinase assays for PKCβII, MAP kinase1/Erk1, and MAP kinase2/Erk2 using the hydrophobic molecule, C16OOOK(Dye 2)EEIYGEF-amide and charge-balance molecule, myelin basic protein with 0 or 100 μM ATP, are shown in FIGS. 3A-C.
(§2) A reaction solution (10 μl) was prepared containing the hydrophobic molecule C16OOOK(Dye2)EEIYGEF-amide (10 μM), and 10 μM charge-balance molecule Myelin Basic Protein (Upstate cat. no: 13-104), in 20 mM Tris buffer, pH 7.6, MgCl2 (5 mM), DTT (5 mM) and either PKCβII (0.15 ng/μl, Upstate USA, Inc.), MAP kinase1/Erk1 (1.5 ng/μl, Upstate USA, Inc.), or MAP kinase2/Erk2 (1.5 ng/μl, Upstate USA, Inc.). The solution was pipetted into wells of a 384-well plate (10 μL per well), Corning 384-well, black, non-binding surface (NBS), microwell plates. ATP (0 or 500 μM) was added to initiate the kinase reaction. Fluorescence was read in real-time every 2 minutes for 2 hours, at ambient temperature, using, Molecular Devices (Sunnyvale, Calif.) Analyst GT, with excitation and emission set at 485 and 535 nm respectively.

In data set [5] the target is T1, PKCβII. The description is as above. It counts as biochemical. As to conditions: FIG. 3A. The protocol: as §1, §2
The target in data set [6] is T3, MAP kinase1/Erk1 (Homo sapiens, UniProt P27361).
T3 construct: purchased Upstate USA, Inc
T3 sequence (P27361 whole entry): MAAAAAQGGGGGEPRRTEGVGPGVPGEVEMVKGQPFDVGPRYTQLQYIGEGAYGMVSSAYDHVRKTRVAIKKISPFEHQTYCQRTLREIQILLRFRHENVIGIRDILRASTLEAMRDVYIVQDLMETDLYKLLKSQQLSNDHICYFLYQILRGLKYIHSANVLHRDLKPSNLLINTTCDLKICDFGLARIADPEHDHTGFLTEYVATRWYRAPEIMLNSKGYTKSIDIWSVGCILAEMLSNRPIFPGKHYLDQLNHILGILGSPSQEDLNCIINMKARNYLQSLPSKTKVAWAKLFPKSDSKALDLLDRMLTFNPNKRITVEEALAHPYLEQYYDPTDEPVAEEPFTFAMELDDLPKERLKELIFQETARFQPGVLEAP
Described as above. It counts as biochemical. As to conditions: FIG. 3B. The protocol:
as §1, §2

Data set [7] can be described thus: Freeze fracture electron microscopy of micelles. It counts as physicochemical. As to conditions: 25 mM Tris pH 7.6; for micelle form seen in electron micrograph: FIGS. 1A-B. An excerpt: Micelle formation can be detected in a variety of ways, including fluorescence titration of the molecules in detergent, and dynamic laser light scattering. Additionally, direct visual evidence of micelle formation, and micelle disruption by adding a charged group, can be obtained by freeze fracturing electron microscopy. For example, FIG. 1A is an electron micrograph of micelles comprising the hydrophobic molecule, C17OOOK(tet)RQGSFRA-amide. […] “Tet” is a fluorescent moiety provided by 2′,7′,4,7-tetachloro-5-carboxy fluorescein (2′,7-dichloro-5-carboxy-4,7-dichlorofluorescein). OOO represents optional O-spacers comprising (bis)ethylene glycol group(s). […] FIG. 1B is an electron micrograph of micelles comprising a phosphorylated hydrophobic molecule, C17OOOK(tet)RQGS(p)FRA-amide. […] Thus, the addition of two negative charges to the hydrophobic molecule, results in micelle disruption and deaggregation.
For freeze fracture electron microscopy, the hydrophobic molecule, C17OOO K(tet)RQGSFRA-amide phosphorylated hydrophobic molecule C17OOOK (tet)RQGS(p)FRA-amide were each dissolved in 25 mM Tris (pH 7.6), 5 mM MgCl and 5 mM DTT. The samples were frozen in liquid nitrogen-cooled propane. […] The fracturing process was carried out in a JEOL JED-9000 freeze-etching machine and the exposed fractured planes were shadowed with Pt for thirty seconds at an angle of 25-35 C and with carbon for 35 seconds (2 kV/60-70 mA, 1×10^−5 Torr). The replicas produced were cleaned with concentrated chloroform/methanol (1:1 by volume) at least five times. The cleaned replicas were examined with a JEOL 1000CX or Philips CM 10 electron microscope.

K(Dye2) = not defined here; K(tet) = not defined here; code O = not defined here; C17 = C17 chain

T1 sequence (P05771 1-673 isoform P05771-2): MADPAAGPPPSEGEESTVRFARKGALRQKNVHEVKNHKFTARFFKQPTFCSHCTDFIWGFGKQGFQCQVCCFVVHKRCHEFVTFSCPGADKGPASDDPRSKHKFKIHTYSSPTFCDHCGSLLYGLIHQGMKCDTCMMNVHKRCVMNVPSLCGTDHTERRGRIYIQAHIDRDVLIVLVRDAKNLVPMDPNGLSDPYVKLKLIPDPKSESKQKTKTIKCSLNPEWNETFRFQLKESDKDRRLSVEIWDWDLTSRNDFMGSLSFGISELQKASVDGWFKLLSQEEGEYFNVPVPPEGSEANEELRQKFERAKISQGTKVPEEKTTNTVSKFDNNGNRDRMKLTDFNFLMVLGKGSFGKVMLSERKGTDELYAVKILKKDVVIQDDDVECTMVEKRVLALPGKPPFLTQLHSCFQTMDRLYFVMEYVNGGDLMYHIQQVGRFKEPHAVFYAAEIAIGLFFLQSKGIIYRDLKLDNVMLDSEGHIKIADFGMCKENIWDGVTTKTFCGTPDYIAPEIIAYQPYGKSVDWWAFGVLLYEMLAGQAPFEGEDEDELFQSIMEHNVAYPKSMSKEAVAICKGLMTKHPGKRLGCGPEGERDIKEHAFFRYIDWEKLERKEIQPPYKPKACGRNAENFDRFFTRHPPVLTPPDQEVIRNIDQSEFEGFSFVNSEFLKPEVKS
T2 sequence (P28482 whole entry): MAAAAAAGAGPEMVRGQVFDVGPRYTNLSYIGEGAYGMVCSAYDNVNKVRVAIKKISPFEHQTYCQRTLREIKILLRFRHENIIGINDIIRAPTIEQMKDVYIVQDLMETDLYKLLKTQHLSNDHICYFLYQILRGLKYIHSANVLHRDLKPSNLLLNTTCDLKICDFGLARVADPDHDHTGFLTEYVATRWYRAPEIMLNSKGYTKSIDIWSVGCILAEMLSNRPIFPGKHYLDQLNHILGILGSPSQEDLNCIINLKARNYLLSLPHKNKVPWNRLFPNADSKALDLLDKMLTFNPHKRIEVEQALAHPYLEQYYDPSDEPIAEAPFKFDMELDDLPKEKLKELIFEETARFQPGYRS

On to `C[C@H](N)C(=O)O` [Alanine (A), Alanine], for which the “Monera et al. Hydrophobicity at pH 7” value in data set [1] was 41. Besides, the “α-COOH pKa” value in data set [2] was 2.4.

Consider `N=C(N)NCCC[C@H](N)C(=O)O` [Arginine (R), Arginine], for which, in data set [2], the “α-COOH pKa” value is listed as 2.2.

As for `NC(=O)C[C@H](N)C(=O)O` [Asparagine (N), Asparagine], in data set [1], the “Monera et al. Hydrophobicity at pH 7” value is −28. Besides, in data set [2], the “α-COOH pKa” value is reported as 2.0 and the “α-NH3+ pKa” value is given as 8.8.

As for `N[C@@H](CS)C(=O)O` [Cysteine (C), Cysteine], the “Monera et al. Hydrophobicity at pH 7” value in data set [1] is recorded as 49. In data set [2], the “Side chain pKa” value is “about 8”.

Regarding `O=S(=O)(NCCNC/C=C/c1ccc(Br)cc1)c1cccc2cnccc12` [H98, H89], the “effect of increasing concentrations of enzyme inhibitor on fluorescence” value in data set [3] is “decrease in fluorescence”.

Consider `N[C@@H](Cc1c[nH]cn1)C(=O)O` [Histidine (H), Histidine], for which the “Monera et al. Hydrophobicity at pH 7” value in data set [1] is listed as 8.

With `CC[C@H](C)[C@H](N)C(=O)O` [Isoleucine (I), Isoleucine], in data set [1], the “Monera et al. Hydrophobicity at pH 7” value is listed as 99. Moreover, in data set [2], the “α-COOH pKa” value is 2.4 and the “α-NH3+ pKa” value is given as 9.7.

As for `NCCCC[C@H](N)C(=O)O` [Lysine (K), Lysine], in data set [1], the “Monera et al. Hydrophobicity at pH 7” value is listed as −23. The “α-NH3+ pKa” value in data set [2] is on record as 9.0.

Turning to `CSCC[C@H](N)C(=O)O` [Methionine (M), Methionine], the “Monera et al. Hydrophobicity at pH 7” value in data set [1] was 74. In data set [2], the “α-COOH pKa” value is recorded as 2.3 and the “α-NH3+ pKa” value is on record as 9.2.

Take `N[C@@H](Cc1ccccc1)C(=O)O` [Phenylalanine (F), Phenylalanine]: the “Monera et al. Hydrophobicity at pH 7” value in data set [1] was 100.

As to `O=C(O)[C@@H]1CCCN1` [Proline (P), Proline], the “Monera et al. Hydrophobicity” value in data set [1] (pH 2) was −46 (pH 2). Also, the “α-COOH pKa” value in data set [2] is 2.1.

As to `N[C@@H](CO)C(=O)O` [Serine (S), Serine], in data set [1], the “Monera et al. Hydrophobicity at pH 7” value is listed as −5. Moreover, in data set [2], the “Side chain pKa” value is listed as around 13 and the “α-NH3+ pKa” value is 9.2.

For `C[C@@H](O)[C@H](N)C(=O)O` [Threonine (T), Threonine], in data set [2], the “Side chain pKa” value is reported as around 13, the “α-COOH pKa” value is on record as 2.6 and the “α-NH3+ pKa” value is given as 10.4.

For `N[C@@H](Cc1c[nH]c2ccccc12)C(=O)O` [Tryptophan (W), Tryptophan], in data set [1], the “Monera et al. Hydrophobicity at pH 7” value is recorded as 97. Also, the “α-COOH pKa” value in data set [2] is listed as 2.4.

Regarding `N[C@@H](Cc1ccc(O)cc1)C(=O)O` [Tyrosine (Y), Tyrosine], in data set [1], the “Monera et al. Hydrophobicity at pH 7” value is recorded as 63.

As for `CC(C)[C@H](N)C(=O)O` [Valine (V), Valine], the “Monera et al. Hydrophobicity at pH 7” value in data set [1] was 76.

Consider “C16OOOK(Dye2)EEIYGEF-amide ({C16-code O-code O-code O-K(Dye2)}-EEIYGEF-NH2; reading uncertain; also: printed as C16OOOK(Dye2)EEIYGEF-amide) [C16OOOK(Dye 2)EEIYGEF-amide, hydrophobic molecule: C16 carbon chain, O-spacers, lysine-linked 5-carboxy-2′,7′-dipyridyl-sulfonefluorescein, peptide EEIYGEF-amide]”, for which the “increase in fluorescence over time on addition of enzyme” value in data set [4], in data set [5] and in data set [6] was “greater than 4 fold” throughout.

For the compound C17OOOK(tet)RQGS(p)FRA-amide, in data set [7], the “micelle form seen in electron micrograph” value is “only form small spheres and small clusters of spheres”.

Turning to “C17OOOK(tet)RQGSFRA-amide ({C17-code O-code O-code O-K(tet)}-RQGSFRA-NH2; reading uncertain; also: printed as C17OOOK(tet)RQGSFRA-amide) [hydrophobic molecule: C17 carbon chain, O-spacers, lysine-linked tet fluorescein dye, peptide RQGSFRA-amide]”, the “micelle form seen in electron micrograph” value in data set [7] is given as “cylindrical or tubular micelles”. Moreover, in data set [7] (electron micrograph FIG. 1A), the “diameter of cylindrical or tubular micelles” value was 20-60 nm and the “length of cylindrical or tubular micelles” value is on record as 200-1000 nm.
